Where “and” joins values, the source holds several entries; their conditions need not be identical. Equal values may be shown once. Where a name gives a salt, the structure may show the parent alone. Read-outs that look alike come from different tables or passages of the source.
Experiments:
[1] = molecular target: T1, bovine serum albumin (BSA) (Bos taurus, UniProt P02769); settings: for Stern–Volmer quenching constant KSV: GLICL as quencher 0–14 µM, DRUG 8 µM (DRUG:BSA 4:1), λex 280 nm
Description: (§1) Bovine serum albumin (≥96%) was used to prepare 1.2 mM stock solution in PBS (pH 7.4). […] The concentration of BSA was controlled by the spectrophotometric method at 280 nm (with a molar coefficient of 43,824 cm^−1 M^−1). […] Simultaneously, a control sample containing BSA solution without any ligands was prepared. Measurements were performed in triplicate. All reagents were received from Sigma-Aldrich (St. Luis, MO, USA).
Fluorescence intensities of ternary models (BSA–DRUG–GLICL) were recorded using a Jasco FP-8200 spectrofluorometer with Peltier-thermo Cell Holder ETC-814 (Tokyo, Japan) at excitation wavelength of 280 nm, equipped with 1.0 cm quartz cells. The slit widths were set at 5 nm. The measurements were conducted at two different temperatures, 298 and 310 K. The fluorescence spectra of the drugs alone were also recorded. Each spectrum background was corrected by subtracting the spectrum of the phosphate buffer as a blank sample.
According to the assumption that fluorophores in a protein molecule may differ in accessibility, modified Stern–Volmer Equation (2) was used for the construction of plots and to calculate quenching constants:(2) F0/F0−F=1/fa·KSV·Q+1/fa where F0 and F are the fluorescence intensities in the absence and presence of gliclazide (GLICL), respectively; fa is the fraction of the initial fluorescence accessible to the quencher; Ksv is the Stern–Volmer quenching constant; and Q is the concentration of the quencher (GLICL).
The binding parameters (binding constant and number of binding sites) were obtained from double-log modified Stern–Volmer Equation (3):(3) logF0−F/F=logKa+n·logQ where F0 and F are the fluorescence intensities in the absence and presence of the quencher (gliclazide), respectively; Ka is the binding constant of the complex BSA–DRUG–GLICL, expressed as M^−1; n is the number of bound gliclazide molecules; and Q is the concentration of the quencher (GLICL).

[2] = molecular target: T1, bovine serum albumin (BSA)
Description: as §1
The thermodynamic analysis of the interaction between albumin and GLICL was performed on measurements at three temperatures (298, 303, 310 K) based on the van’t Hoff Equations (4)–(6):(4) ΔG=−R·T·lnKa (5) ΔG=ΔH−T·ΔS (6) lnKa=−ΔH/R·T+ΔS/R where ΔG is the free energy change, ΔH is the enthalpy change, ΔS is the entropy change, R is the universal gas constant, and T is the temperature.

[3] = molecular target: T1, bovine serum albumin (BSA); remark: listed apart in the source
Description: as §1
The circular dichroism spectra data were recorded using JASCO J-1500 spectropolarimeter (Tokyo, Japan) in the range of 205–250 nm, with a scanning speed of 200 nm/min and with 0.1 step resolution using a quartz cuvette with a length path of 0.1 cm. The measurements were conducted for binary (BSA–DRUG) and ternary (BSA–DRUG–GLICL) models to provide information about the influence of ligand binding on the protein structure. The baseline was corrected using a phosphate buffer, pH = 7.4.
Mean residue ellipticity (MRE) was calculated according to the following Equation (7) and expressed in deg cm^2 dmol^−1:(7) MRE=Θobs/cp·n·l·10 where Θobs is the observed CD (in mdegree), Cp is the molar concentration of BSA, n is the number of amino acid residues (583 for BSA), and l is the path length of the cuvette (0.1 cm).
The α-helical contents of free and modified BSA were calculated from MRE values at 208 nm with Equation (8):(8) α-helix (%)=MRE208−4000/33,000−4000 ·100 where MRE208 is the observed MRE value at 208 nm, 4000 is the MRE of the β-form and random coil conformation cross at 208 nm, and 33,000 is the MRE value of the pure α-helix of BSA at 208 nm.

[4] = tested on: plasma protein; settings: cited from earlier work; for Binding to plasma protein: general statement, no reference given
[5] = tested on: albumin; settings: cited from earlier work
[6] = tested on: BSA; design: method as in PMID 28888191; settings: no additional ligand, cited from earlier work
[7] = BSA–GLICL complex in presence of DRUG, 298 303 310 K

T1 sequence (P02769 25-607): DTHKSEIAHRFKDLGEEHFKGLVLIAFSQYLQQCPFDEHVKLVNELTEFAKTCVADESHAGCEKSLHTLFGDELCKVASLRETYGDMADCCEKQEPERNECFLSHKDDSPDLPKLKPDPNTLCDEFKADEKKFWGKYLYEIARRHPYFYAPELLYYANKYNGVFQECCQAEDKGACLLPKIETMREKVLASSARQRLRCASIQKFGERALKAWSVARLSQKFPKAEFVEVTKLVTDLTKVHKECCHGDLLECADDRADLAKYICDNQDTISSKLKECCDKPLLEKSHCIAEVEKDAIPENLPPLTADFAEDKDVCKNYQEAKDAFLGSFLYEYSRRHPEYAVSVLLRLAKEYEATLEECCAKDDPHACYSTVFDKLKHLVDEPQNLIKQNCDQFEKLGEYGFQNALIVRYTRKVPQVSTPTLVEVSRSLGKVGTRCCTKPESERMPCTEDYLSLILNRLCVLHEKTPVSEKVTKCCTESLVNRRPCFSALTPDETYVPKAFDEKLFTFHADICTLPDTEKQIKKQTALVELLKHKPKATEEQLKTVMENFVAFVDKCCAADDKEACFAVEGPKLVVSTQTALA

With `CCOC(=O)C1=C(COCCN)NC(C)=C(C(=O)OC)C1c1ccccc1Cl` (stereo not drawn) [AML, amlodipine besylate] the “Ka, association constant of BSA–GLICL complex in presence of DRUG” value (“Ka, association constant” for short) [1] was 1.15 ± 0.01 10^4 M^−1, the “n, number of binding sites (bound gliclazide molecules)” value [1] was 0.93 ± 0.01 and 0.97 ± 0.01 and the ΔS [2] was 100.32 J/mol K. For the same compound, the “Decreased α-Helix (%)” value [3] was 0.7% and the “Binding to plasma protein” value [4] was “over 95%”.
In the case of `CC(C)NCC(O)COc1ccc(CC(N)=O)cc1` (stereo not drawn) [ATN, atenolol], the “Association constant, site 1 of albumin” value [5] is listed as “approx. 10^3 M^−1”.
In the case of `Cc1ccc(S(=O)(=O)NC(=O)NN2CC3CCCC3C2)cc1` (stereo not drawn) [GLICL, gliclazide], the Plasma protein binding [4] is listed as “up to 94%”, the “Ka of BSA–GLICL (binary model)” value ([6]; 298 K) is listed as 3.80 10^4 M^−1 and the “Ka of BSA–GLICL (binary model)” value ([6]; 310 K) is listed as 3.76 10^4 M^−1.
With `CCOC(=O)[C@H](CCc1ccccc1)N[C@@H](C)C(=O)N1Cc2ccccc2C[C@H]1C(=O)O` [QUI, quinapril hydrochloride] the “n, number of binding sites (bound gliclazide molecules)” value ([1]; BSA–DRUG–GLICL, 298 K) was 1.04 ± 0.01, the “n, number of binding sites (bound gliclazide molecules)” value ([1]; BSA–DRUG–GLICL, 310 K) was 1.03 ± 0.03 and the “Ka, association constant” value ([1]; BSA–DRUG–GLICL, DRUG:BSA 4:1, 298 K) was 1.65 ± 0.02 10^4 M^−1. The “Ka, association constant” value ([1]; BSA–DRUG–GLICL, DRUG:BSA 4:1, 310 K) was 2.09 ± 0.07 10^4 M^−1, the “Stern–Volmer quenching constant KSV” value ([1]; BSA–DRUG–GLICL, 298 K) was 2.23 ± 0.01 10^4 M^−1 and the “Stern–Volmer quenching constant KSV” value ([1]; BSA–DRUG–GLICL, 310 K) was 0.96 ± 0.16 10^4 M^−1. The “Mechanism of quenching of BSA fluorescence by GLICL in presence of DRUG” value ([1]; from temperature dependence of KSV, 298 vs 310 K) was “static mechanism”, the “Change of Ka of BSA–GLICL complex in comparison to the binary model” value ([1]; ternary vs binary model (binary Ka from ref 24)) was “more than a twofold decrease” and the ΔH [2, 7] was 3.604 kcal/mol. The ΔS [2, 7] was 131.36 J/mol K, the ΔG ([2]; BSA–GLICL complex in presence of DRUG, 298 K) was -5.753 kcal/mol and the ΔG ([2]; BSA–GLICL complex in presence of DRUG, 303 K) was -5.908 kcal/mol. The ΔG ([2]; BSA–GLICL complex in presence of DRUG, 310 K) was -6.128 kcal/mol, the “α-Helix Content (%)” value ([3]; binary BSA–DRUG, molar ratio 1:4, 310 K (BSA alone 68.7)) was 67.6% and the “Decreased α-Helix (%)” value ([3]; binary BSA–DRUG, molar ratio 1:4, 310 K, vs BSA alone) was 1.1%. For the same compound, the “α-Helix Content (%)” value ([3]; ternary BSA–DRUG–GLICL, BSA:Ligand 1:4, BSA:GLICL 1:7, 310 K (BSA alone 68.7)) was 63.1%, the “Decreased α-Helix (%)” value ([3]; ternary BSA–DRUG–GLICL, BSA:Ligand 1:4, BSA:GLICL 1:7, 310 K, vs BSA alone) was 5.6% and the “Binding to plasma protein” value [4] was “over 95%”.
In the case of `CCCCC(=O)N(Cc1ccc(-c2ccccc2-c2nnn[nH]2)cc1)[C@H](C(=O)O)C(C)C` [VAL, valsartan], the “Ka, association constant” value [1] is reported as 0.12 ± 0.04 10^4 M^−1, the “Mechanism of quenching of BSA fluorescence by GLICL in presence of DRUG” value [1] is reported as “static mechanism” and the “n, number of binding sites (bound gliclazide molecules)” value [1] is reported as 0.87 ± 0.01 and 0.74 ± 0.02. The ΔG [2] was -5.21 kcal/mol, the ΔH [2] was 23.924 kcal/mol and the ΔS [2] was 393.25 J/mol K. For the same compound, the “Decreased α-Helix (%)” value [3] was 1.0% and 3.5%, the “α-Helix Content (%)” value [3] was 67.7% and 65.2% and the Protein binding [4] was 95%.
